In publication PMC11995216, “End-to-End Backbone Cyclization Enhances Passive Permeability of bRo5 Oligomeric Depsipeptides with Nonlinear Size Dependence” (ACS Medicinal Chemistry Letters, 2025):
Read-outs that look alike come from different tables or passages of the source.

Columns and labels:
PAMPA [1] = tested on: PAMPA
[2] = PAMPA, permeability assay across an artificial membrane; conditions: for Acceptor Concentration, Ave: after incubation
PAMPA [3] = tested on: PAMPA; remark: listed apart in the source
[4] = PAMPA, ratio-based method, mean ± SD, C0 500 uM, UV detection

## CCCCC[C@@H]1OC(=O)[C@@H](C)N(C)C(=O)[C@H](CCCCC)OC(=O)[C@@H](C)N(C)C(=O)[C@H](CCCCC)OC(=O)[C@@H](C)N(C)C(=O)[C@H](CCCCC)OC(=O)[C@@H](C)N(C)C1=O [Compound C1.4, ent-verticilide]
PAMPA [1]; Acceptor Concentration (uM) – ELSD Detection / [row 1]
  Acceptor Concentration: 122 µM
PAMPA [1]; Acceptor Concentration (uM) – ELSD Detection / [row 2]
  Acceptor Concentration: 148 µM
PAMPA [1]; Acceptor Concentration (uM) – ELSD Detection / [row 3]
  Acceptor Concentration: 157 µM
PAMPA [1]; Acceptor Concentration (uM) – ELSD Detection / [row 4]
  Acceptor Concentration: 122 µM
PAMPA [1]; Acceptor Concentration (uM) – ELSD Detection / [row 5]
  Acceptor Concentration: 137 µM
PAMPA [1]; Acceptor Concentration (uM) – ELSD Detection / [row 6]
  Acceptor Concentration: 76.5 µM
PAMPA [1]; Acceptor Concentration (uM) – ELSD Detection / [row 7]
  Acceptor Concentration: 98.2 µM
PAMPA [1]; Acceptor Concentration (uM) – ELSD Detection / [row 8]
  Acceptor Concentration: 94.4 µM
PAMPA [1]; Acceptor Concentration (uM) – ELSD Detection / [row 9]
  Acceptor Concentration: 105 µM
PAMPA [1]; Acceptor Concentration (uM) – ELSD Detection / [row 10]
  Acceptor Concentration: 92.1 µM
PAMPA [1]; Acceptor Concentration (uM) – ELSD Detection / [row 11]
  Acceptor Concentration: 114 µM
PAMPA [1]; Acceptor Concentration (uM) – ELSD Detection / [row 12]
  Acceptor Concentration: 159 µM
PAMPA [1]; Acceptor Concentration (uM) – ELSD Detection / [row 13]
  Acceptor Concentration: 121 µM
PAMPA [1]; Acceptor Concentration (uM) – ELSD Detection / [row 14]
  Acceptor Concentration: 125 µM
PAMPA [1]; Acceptor Concentration (uM) – ELSD Detection / [row 15]
  Acceptor Concentration: 150 µM
PAMPA [1]; Acceptor Concentration (uM) – ELSD Detection / [row 16]
  Acceptor Concentration: 136 µM
PAMPA [1]; Acceptor Concentration (uM) – ELSD Detection / [row 17]
  Acceptor Concentration: 142 µM
PAMPA [1]; Acceptor Concentration (uM) – ELSD Detection / [row 18]
  Acceptor Concentration: 129 µM
PAMPA [1]; Acceptor Concentration (uM) – ELSD Detection / [row 19]
  Acceptor Concentration: 90.2 µM
PAMPA [1]; Acceptor Concentration (uM) – ELSD Detection / [row 20]
  Acceptor Concentration: 59.8 µM
PAMPA [1]; Acceptor Concentration (uM) – ELSD Detection / [row 21]
  Acceptor Concentration: 91.7 µM
PAMPA [1]; Acceptor Concentration (uM) – ELSD Detection / [row 22]
  Acceptor Concentration: 130 µM
PAMPA [1]; Acceptor Concentration (uM) – ELSD Detection / [row 23]
  Acceptor Concentration: 115 µM
PAMPA [1]; Acceptor Concentration (uM) – ELSD Detection / [row 24]
  Acceptor Concentration: 125 µM
[2]; PAMPA percent diffusion, C0 500 uM
  Diffusion (%): 25.5 ± 3.4%
[2]; PAMPA, Ave, ELSD detection, C0 500 uM
  Papp at 500 uM: 5.69 ×10⁻⁶ cm/s
[2]; [4]
  Papp at 500 uM: 7.14 ± 0.65 ×10⁻⁶ cm/s
  LogPapp: -5.21 ± 0.09
[2]; PAMPA, ELSD detection, C0 500 uM
  Acceptor Concentration, Ave: 118.4 µM
[2]; PAMPA, UV detection, C0 500 uM
  Acceptor Concentration, Ave: 127.6 µM
[2]; PAMPA, UV detection, C0 500 uM, listed as ent‐Verticilide
  Acceptor Concentration, Ave: 127.56 µM
[2]; increase: difference between percent diffusion of macrocycle vs linear counterpart
  Δ % diffusion: ↑14%
PAMPA [3]; Papp (x 10^-6 cm/s) – ELSD Detection / [row 1], ELSD Detection
  Papp: 7.05 ×10⁻⁶ cm/s
PAMPA [3]; Papp (x 10^-6 cm/s) – ELSD Detection / [row 2], ELSD Detection
  Papp: 7.2 ×10⁻⁶ cm/s
PAMPA [3]; Papp (x 10^-6 cm/s) – ELSD Detection / [row 3], ELSD Detection
  Papp: 4.28 ×10⁻⁶ cm/s
PAMPA [3]; Papp (x 10^-6 cm/s) – ELSD Detection / [row 4], ELSD Detection
  Papp: 7.39 ×10⁻⁶ cm/s
PAMPA [3]; Papp (x 10^-6 cm/s) – ELSD Detection / [row 5], ELSD Detection
  Papp: 4.99 ×10⁻⁶ cm/s
PAMPA [3]; Papp (x 10^-6 cm/s) – ELSD Detection / [row 6], ELSD Detection
  Papp: 6.24 ×10⁻⁶ cm/s
PAMPA [3]; Papp (x 10^-6 cm/s) – ELSD Detection / [row 7], ELSD Detection
  Papp: 5.58 ×10⁻⁶ cm/s
PAMPA [3]; Papp (x 10^-6 cm/s) – ELSD Detection / [row 8], ELSD Detection
  Papp: 7.27 ×10⁻⁶ cm/s
PAMPA [3]; Papp (x 10^-6 cm/s) – ELSD Detection / [row 9], ELSD Detection
  Papp: 4.68 ×10⁻⁶ cm/s
PAMPA [3]; Papp (x 10^-6 cm/s) – ELSD Detection / [row 10], ELSD Detection
  Papp: 4.63 ×10⁻⁶ cm/s
PAMPA [3]; Papp (x 10^-6 cm/s) – ELSD Detection / [row 11], ELSD Detection
  Papp: 4.05 ×10⁻⁶ cm/s
PAMPA [3]; Papp (x 10^-6 cm/s) – ELSD Detection / [row 12], ELSD Detection
  Papp: 6.98 ×10⁻⁶ cm/s
PAMPA [3]; Papp (x 10^-6 cm/s) – ELSD Detection / [row 13], ELSD Detection
  Papp: 4.62 ×10⁻⁶ cm/s
PAMPA [3]; Papp (x 10^-6 cm/s) – ELSD Detection / [row 14], ELSD Detection
  Papp: 3.79 ×10⁻⁶ cm/s
PAMPA [3]; Papp (x 10^-6 cm/s) – ELSD Detection / [row 15], ELSD Detection
  Papp: 4.66 ×10⁻⁶ cm/s
PAMPA [3]; Papp (x 10^-6 cm/s) – ELSD Detection / [row 16], ELSD Detection
  Papp: 5.98 ×10⁻⁶ cm/s
PAMPA [3]; Papp (x 10^-6 cm/s) – ELSD Detection / [row 17], ELSD Detection
  Papp: 5.46 ×10⁻⁶ cm/s
PAMPA [3]; Papp (x 10^-6 cm/s) – ELSD Detection / [row 18], ELSD Detection
  Papp: 6.2 ×10⁻⁶ cm/s
PAMPA [3]; Papp (x 10^-6 cm/s) – ELSD Detection / [row 19], ELSD Detection
  Papp: 5.51 ×10⁻⁶ cm/s
PAMPA [3]; Papp (x 10^-6 cm/s) – ELSD Detection / [row 20], ELSD Detection
  Papp: 5.72 ×10⁻⁶ cm/s
PAMPA [3]; Papp (x 10^-6 cm/s) – ELSD Detection / [row 21], ELSD Detection
  Papp: 4.75 ×10⁻⁶ cm/s
PAMPA [3]; Papp (x 10^-6 cm/s) – ELSD Detection / [row 22], ELSD Detection
  Papp: 7.56 ×10⁻⁶ cm/s
PAMPA [3]; Papp (x 10^-6 cm/s) – ELSD Detection / [row 23], ELSD Detection
  Papp: 7.22 ×10⁻⁶ cm/s
PAMPA [3]; Papp (x 10^-6 cm/s) – ELSD Detection / [row 24], ELSD Detection
  Papp: 4.78 ×10⁻⁶ cm/s
PAMPA [3]; Papp (x 10^-6 cm/s) – UV Detection / [row 1], UV Detection
  Papp: 6.39 ×10⁻⁶ cm/s
PAMPA [3]; Papp (x 10^-6 cm/s) – UV Detection / [row 2], UV Detection
  Papp: 7.95 ×10⁻⁶ cm/s
PAMPA [3]; Papp (x 10^-6 cm/s) – UV Detection / [row 3], UV Detection
  Papp: 6.48 ×10⁻⁶ cm/s
PAMPA [3]; Papp (x 10^-6 cm/s) – UV Detection / [row 4], UV Detection
  Papp: 7.85 ×10⁻⁶ cm/s
PAMPA [3]; Papp (x 10^-6 cm/s) – UV Detection / [row 5], UV Detection
  Papp: 6.83 ×10⁻⁶ cm/s
PAMPA [3]; Papp (x 10^-6 cm/s) – UV Detection / [row 6], UV Detection
  Papp: 7.11 ×10⁻⁶ cm/s
PAMPA [3]; Papp (x 10^-6 cm/s) – UV Detection / [row 7], UV Detection
  Papp: 6.85 ×10⁻⁶ cm/s
PAMPA [3]; Papp (x 10^-6 cm/s) – UV Detection / [row 8], UV Detection
  Papp: 7.63 ×10⁻⁶ cm/s
PAMPA [3]; Papp (x 10^-6 cm/s) – UV Detection / [row 9], UV Detection
  Papp: 4.68 ×10⁻⁶ cm/s
PAMPA [3]; Papp (x 10^-6 cm/s) – UV Detection / [row 10], UV Detection
  Papp: 4.63 ×10⁻⁶ cm/s
PAMPA [3]; Papp (x 10^-6 cm/s) – UV Detection / [row 11], UV Detection
  Papp: 4.05 ×10⁻⁶ cm/s
PAMPA [3]; Papp (x 10^-6 cm/s) – UV Detection / [row 12], UV Detection
  Papp: 6.98 ×10⁻⁶ cm/s
PAMPA [3]; Papp (x 10^-6 cm/s) – UV Detection / [row 13], UV Detection
  Papp: 4.62 ×10⁻⁶ cm/s
PAMPA [3]; Papp (x 10^-6 cm/s) – UV Detection / [row 14], UV Detection
  Papp: 3.79 ×10⁻⁶ cm/s
PAMPA [3]; Papp (x 10^-6 cm/s) – UV Detection / [row 15], UV Detection
  Papp: 4.66 ×10⁻⁶ cm/s
PAMPA [3]; Papp (x 10^-6 cm/s) – UV Detection / [row 16], UV Detection
  Papp: 5.98 ×10⁻⁶ cm/s
PAMPA [3]; Papp (x 10^-6 cm/s) – UV Detection / [row 17], UV Detection
  Papp: 6.44 ×10⁻⁶ cm/s
PAMPA [3]; Papp (x 10^-6 cm/s) – UV Detection / [row 18], UV Detection
  Papp: 7.86 ×10⁻⁶ cm/s
PAMPA [3]; Papp (x 10^-6 cm/s) – UV Detection / [row 19], UV Detection
  Papp: 4.86 ×10⁻⁶ cm/s
PAMPA [3]; Papp (x 10^-6 cm/s) – UV Detection / [row 20], UV Detection
  Papp: 6.27 ×10⁻⁶ cm/s
PAMPA [3]; Papp (x 10^-6 cm/s) – UV Detection / [row 21], UV Detection
  Papp: 6.77 ×10⁻⁶ cm/s
PAMPA [3]; Papp (x 10^-6 cm/s) – UV Detection / [row 22], UV Detection
  Papp: 5.18 ×10⁻⁶ cm/s
PAMPA [3]; Papp (x 10^-6 cm/s) – UV Detection / [row 23], UV Detection
  Papp: 5.55 ×10⁻⁶ cm/s
PAMPA [3]; Papp (x 10^-6 cm/s) – UV Detection / [row 24], UV Detection
  Papp: 6.05 ×10⁻⁶ cm/s
